From PubChem BioAssay AID434951 (Broad Institute, 2010)
The source made the active and inactive calls.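 The calls were made as follows: active = a fitted half-maximal concentration EC50 for the rise in nuclear signal no higher than ten times the top dose tested; inconclusive = flat fit with activity between 30% and 70%, or unusable fit; inactive = EC50 beyond ten times the top dose.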

What follows are compounds tested against Hypoxia-inducible factor 1-alpha (Homo sapiens) (UniProt Q16665) (assay: HIF pathway activation, GFP-HIF1alpha translocation – imaging, fluorescence, U2OS GFP-HIF1alpha, confirmation (AID 434951)). Settings: U2OS GFP-HIF1alpha nuclear intensity, high-content imaging.
Sequence of Hypoxia-inducible factor 1-alpha (Homo sapiens) (Q16665 whole entry, looked up): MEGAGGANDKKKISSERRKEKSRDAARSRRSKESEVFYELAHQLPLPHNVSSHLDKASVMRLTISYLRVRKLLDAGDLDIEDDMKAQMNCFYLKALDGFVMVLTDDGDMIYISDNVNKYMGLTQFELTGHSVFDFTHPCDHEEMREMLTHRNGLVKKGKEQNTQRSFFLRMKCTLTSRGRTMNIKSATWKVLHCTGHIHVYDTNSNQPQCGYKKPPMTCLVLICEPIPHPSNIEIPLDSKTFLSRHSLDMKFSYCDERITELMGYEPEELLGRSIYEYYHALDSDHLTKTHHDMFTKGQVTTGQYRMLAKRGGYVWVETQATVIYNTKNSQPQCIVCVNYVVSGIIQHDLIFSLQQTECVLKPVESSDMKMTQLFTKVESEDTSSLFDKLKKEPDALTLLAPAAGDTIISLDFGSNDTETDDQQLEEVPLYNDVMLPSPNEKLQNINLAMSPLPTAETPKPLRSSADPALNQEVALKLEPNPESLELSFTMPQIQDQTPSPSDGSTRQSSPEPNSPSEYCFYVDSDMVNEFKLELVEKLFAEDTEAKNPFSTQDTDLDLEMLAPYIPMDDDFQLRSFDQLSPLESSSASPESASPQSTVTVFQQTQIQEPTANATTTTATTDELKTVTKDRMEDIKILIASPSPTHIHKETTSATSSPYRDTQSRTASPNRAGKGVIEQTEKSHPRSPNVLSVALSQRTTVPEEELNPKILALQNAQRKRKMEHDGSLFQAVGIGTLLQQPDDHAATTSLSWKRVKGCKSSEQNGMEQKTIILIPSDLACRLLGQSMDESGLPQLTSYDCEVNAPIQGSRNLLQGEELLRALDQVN
Work on `O=[N+]([O-])c1cc(Cl)cc(/C=N\Nc2ccccn2)c1O` yielded an EC50 of 1.65 µM. For `c1ccc(N=Nc2ccc3cccccc2-3)cc1`, the EC50 was 33.1 µM. `CC(=O)c1cccc(NC(=O)CSC(=O)c2ccccc2)c1` was tested, and the EC50 was > 35 µM (inactive). In the case of `COc1ccc(NC(=O)CSc2ncnc3[nH]ncc23)cc1`, the EC50 is reported as > 35 µM (inactive). In the case of `CCOc1ccc2c(c1)c1nnc(SCC3CCCO3)nc1n2C` (centres undefined), the EC50 is reported as > 35 µM (inactive). For `COc1ccc(OC)c2[nH]c(C(=O)N/N=C/c3ccccc3O)cc12`, the EC50 was 6.61 µM. `CN1CCN(Cc2nc3ccccc3c(=O)n2Cc2nc(-c3ccccc3F)cs2)CC1` showed an EC50 of 8.66 µM. In the case of `CC(C)c1nnc(NC(=O)CCC(=O)NC2CC2)s1`, the EC50 is reported as > 35 µM (inactive). With `O=C(N/N=C/c1cccnc1)c1ccc(NC(=O)c2ccc(Cl)cc2)cc1` the EC50 was > 35 µM (inactive). For `COc1ccccc1NC(=O)c1nc(S(=O)(=O)Cc2ccccc2)ncc1Cl`, the EC50 was > 35 µM (inactive). `S=C(Nc1ccc(Cl)cc1)Nc1ccc2cn[nH]c2c1` was tested, and the EC50 was > 35 µM (inactive). With `CC(Oc1ccc2ccc(=O)oc2c1)C(=O)NCCN1CCOCC1` (centres undefined) the EC50 was > 35 µM (inactive). With `Cc1cccc(NC(=S)N2CCC(N(C)CC3CCCO3)CC2)c1` (centres undefined) the EC50 was > 35 µM (inactive). `O=C(c1ccc(OC2CCN(CCc3ccccc3)CC2)cc1)N1CCCC(CCCO)C1` (centres undefined) was tested, and the EC50 was > 35 µM (inactive). With `O=C(CN(Cc1ccc(F)cc1)C(=O)CCC(=O)Nc1nccs1)NCC1CCCO1` (centres undefined) the EC50 was > 35 µM (inactive). In the case of `Cc1ccc(OC(C)C(=O)N2CC(=O)Nc3ccccc32)cc1` (centres undefined), the EC50 is reported as > 35 µM (inactive). In the case of `CC(=O)Nc1nc2ccccc2n1CCOc1ccccc1Cl`, the EC50 is reported as > 35 µM (inactive). In the case of `CCOC(=O)c1ccc(S(=O)(=O)NNC(=O)COc2ccccc2C)cc1`, the EC50 is reported as > 35 µM (inactive). With `C(=N\Nc1nc2ccccc2[nH]1)/c1cccc2nccnc12` the EC50 was 15.8 µM. In the case of `CC1CN/C(=C\C(=O)c2ccc(Br)cc2)C(=O)N1` (centres undefined), the EC50 is reported as > 35 µM (inactive). In the case of `CCCCC(=O)NC(c1ccc(N(C)C)cc1)c1ccc2cccnc2c1O` (centres undefined), the EC50 is reported as 3.09 µM. For `COc1ccc(NC(=O)c2cccc(NC(=O)c3ccco3)c2)c(OC)c1`, the EC50 was > 35 µM (inactive). `COc1cc2ccccc2cc1C(=O)NNC(=O)c1ccccc1O` was tested, and the EC50 was > 35 µM (inactive). For `COc1ccc(NC(=S)Nc2ccccn2)c(OC)c1`, the EC50 was > 35 µM (inactive). `COCCn1c(-c2ccc(OC)cc2)cnc1SCC(=O)Nc1ccc(OC)cc1OC` was tested, and the EC50 was > 35 µM (inactive). For `Cc1cccc(C(=O)OC(C)CN2CCCC2)c1` (centres undefined), the EC50 was > 35 µM (inactive). `COc1ccc(CCNC(=O)CSc2nc(-c3ccc(OC)c(OC)c3)ccc2C#N)cc1` was tested, and the EC50 was > 35 µM (inactive). `FC(F)(F)c1ccc(-c2nc(=S)[nH][nH]2)cc1` was tested, and the EC50 was > 35 µM (inactive). For `COc1ccc(N=C2C(=O)N3CCCc4cccc2c43)cc1`, the EC50 was > 35 µM (inactive). In the case of `CC(C)N(c1ccccc1)c1ncnc(NCCC(=O)O)c1[N+](=O)[O-]`, the EC50 is reported as > 35 µM (inactive). With `Oc1ccc(CN2CCN(Cc3ccccc3)CC2)c2cccnc12` the EC50 was > 35 µM (inactive). In the case of `Cc1ccc(C(=O)Nc2cccc([N+](=O)[O-])c2)cc1S(=O)(=O)Nc1ccc(NC(=O)c2ccccc2)cc1`, the EC50 is reported as > 35 µM (inactive). For `O=C(NNC(=O)C(O)(c1ccccc1)c1ccccc1)C1CC1`, the EC50 was > 35 µM (inactive). `COc1ccc(CNC(=S)N/N=C/c2ccc(O)c(OC)c2)cc1` was tested, and the EC50 was > 35 µM (inactive). `O=C(NCC1CCCO1)c1cc(-c2ccc(F)cc2)no1` (centres undefined) showed an EC50 of 32.6 µM. Compound `CCN(CC)c1ccc(/C=N/Nc2nc(C)cc(=O)[nH]2)c(O)c1` has an EC50 of 34.4 µM. For `CN(C)c1ccc(N=Nc2ccc(S(N)(=O)=O)cc2)cc1`, the EC50 was > 35 µM (inactive). `CC(C)[C@H](NC(=O)c1ccccc1Cl)C(=O)Nc1nc(-c2ccccn2)cs1` gave an EC50 of 6.64 µM. In the case of `CCOc1cc(/C=N/NC(=O)c2c(-c3ccccc3)noc2C)ccc1O`, the EC50 is reported as > 35 µM (inactive). For `CC(C)[C@H](NC(=O)c1ccco1)C(=O)OCc1cc(=O)n2c(n1)sc1ccccc12`, the EC50 was > 35 µM (inactive). For `COc1ccc(S(=O)(=O)N2CCOC2CNC(=O)C(=O)NCc2ccc3c(c2)OCO3)cc1OC` (centres undefined), the EC50 was > 35 µM (inactive). `Cc1cc(C)nc(Sc2ncnc(N)c2[N+](=O)[O-])n1` showed an EC50 of 20.6 µM. For `Cc1cccc(OCC(=O)NCC(=O)N/N=C/c2cccnc2)c1`, the EC50 was > 35 µM (inactive). In the case of `COC(=O)C1=Nc2ccccc2/C1=C\c1c(O)n(-c2cc(OC)ccc2OC)c(=O)[nH]c1=O`, the EC50 is reported as > 35 µM (inactive). With `CCCOC(=O)NC1C(NC(=O)OCCC)N(C)C(=O)N1C` (centres undefined) the EC50 was > 35 µM (inactive). `O=C(N/N=C/c1c(O)ccc2ccccc12)c1ccc(Br)o1` was tested, and the EC50 was 12.3 µM. In the case of `Cc1cc(=O)[nH]c(SCC(=O)Nc2nonc2C)n1`, the EC50 is reported as > 35 µM (inactive). For `CC1(C)Cc2c(C#N)c(SCCC#N)nc(N3CCOCC3)c2CO1`, the EC50 was > 35 µM (inactive). In the case of `CCCCC(=O)NC(c1cccs1)c1cc(Cl)c2cccnc2c1O` (centres undefined), the EC50 is reported as > 35 µM (inactive). Compound `COc1ccc(CCNC(=O)c2cc(-c3cccs3)on2)cc1OC` has an EC50 of 7.39 µM. `Cc1cc(=O)oc2cc(OCC(=O)N3CCN(c4ccc(F)cc4)CC3)ccc12` was tested, and the EC50 was > 35 µM (inactive). `Cc1cc(/C=N/n2c(COc3ccccc3)nc3ccccc3c2=O)c(O)c([N+](=O)[O-])c1` was tested, and the EC50 was 24.5 µM. `CC1(C)CC(NC(=O)CCC2CCCC2)CC(C)(C)N1` was tested, and the EC50 was > 35 µM (inactive). For `Cc1ccc(NC(=S)N(Cc2cccs2)Cc2cc3cccc(C)c3[nH]c2=O)cc1`, the EC50 was > 35 µM (inactive). `COc1cccc(/C=N/NC(=O)c2c(C)nc3ccc(Br)cn23)c1O` was tested, and the EC50 was 5.52 µM. In the case of `CCN(CC)S(=O)(=O)c1ccc(N/N=C(\C)c2ccc(OC)cc2O)nc1`, the EC50 is reported as 7.86 µM. With `COc1ccc(C(=O)Nc2ccccc2C(=O)N/N=C/c2ccccn2)cc1OC` the EC50 was 10.6 µM. In the case of `Cc1cc(SCC(=O)N/N=C/c2ccc(O)cc2O)c(C)cc1Br`, the EC50 is reported as 32.3 µM. `Cc1cc(NC(=O)C2CC(=O)N(c3cccc(C)c3C)C2)no1` (centres undefined) showed an EC50 of 33.3 µM. `COc1ccc(/C=N/Nc2ncnc3sc4c(c23)CCCC4)cc1OC` was tested, and the EC50 was > 35 µM (inactive). For `COc1ccc(C(=O)N2CCCCCC2)cc1S(=O)(=O)N1CCOCC1`, the EC50 was > 35 µM (inactive). `O=C(N/N=C/c1ccccn1)c1ccc(Br)cc1` showed an EC50 of 12.2 µM. For `O=C(CNC(=O)C(c1ccccc1)c1ccccc1)N/N=C/c1ccc(O)cc1O`, the EC50 was > 35 µM (inactive). `O=C(NCC1CCCO1)c1cc(-c2ccccc2)on1` (centres undefined) was tested, and the EC50 was 6.78 µM. For `COc1cc(C(=O)N2CCN(C(=O)Cc3ccccc3)CC2)cc(OC)c1OC`, the EC50 was > 35 µM (inactive). For `Cc1ccc(-c2nc(CS(=O)(=O)CC(=O)NC3CCC(C)CC3)c(C)o2)cc1` (centres undefined), the EC50 was > 35 µM (inactive). With `COc1cc(C(=O)Nc2sc(C)c(C)c2C(=O)O)cc(OC)c1OC` the EC50 was > 35 µM (inactive). `N#Cc1ccccc1OCCCN1CCC(Cc2ccccc2)CC1` was tested, and the EC50 was > 35 µM (inactive). For `CC(OC(=O)COc1ccc(Nc2ccccc2)cc1)C(=O)N(C)c1ccccc1` (centres undefined), the EC50 was > 35 µM (inactive). For `CC1(C)CC(=O)C(CC2C(=O)CC(C)(C)CC2=O)C(=O)C1`, the EC50 was > 35 µM (inactive). `Cc1ccc(C(=O)Nc2ccc3c(c2)nc(CCNC(=O)c2ccco2)n3C)cc1` was tested, and the EC50 was > 35 µM (inactive). `COc1ccc2nc(NC(=O)CSc3nccc(C)n3)sc2c1` was tested, and the EC50 was > 35 µM (inactive). In the case of `CN(/N=C/c1c[nH]c2ccccc12)c1cnn(-c2ccc(F)c(Cl)c2)c(=O)c1Cl`, the EC50 is reported as > 35 µM (inactive). With `CCCc1sc(N/N=C/c2ccccn2)nc1-c1ccc(F)cc1` the EC50 was 6.01 µM. In the case of `CC/C(=N\N1CCCCCC1)c1c(O)n(-c2ccc(C)cc2)c(=O)[nH]c1=O`, the EC50 is reported as > 35 µM (inactive). `Cc1cc(NC(c2cccnc2)c2ccc3cccnc3c2O)no1` (centres undefined) was tested, and the EC50 was 23.3 µM. With `O=C(NCc1ccco1)c1cc(-c2cccs2)on1` the EC50 was 34.5 µM. With `Oc1ccc(Br)cc1/C=N/Nc1ccccn1` the EC50 was 7.01 µM. For `OCCC#Cc1ccc(CN2CCN(Cc3ccccc3)C(CCO)C2)cc1` (centres undefined), the EC50 was > 35 µM (inactive). With `Cc1nc2ccccc2n2c(-c3ccccc3)c3c(=O)n(C)c(=O)n(C)c3c12` the EC50 was > 35 µM (inactive). `Cc1ccc2c(c1)C1NC(=S)NC(C)(O2)C1C(=O)Nc1ccc(Cl)cc1` (centres undefined) was tested, and the EC50 was > 35 µM (inactive). In the case of `O=C(N/N=C/c1cc(Br)cc(Cl)c1O)c1ccc2c(c1)OCO2`, the EC50 is reported as > 35 µM (inactive). With `CCC(=O)NC(c1ccc(Cl)cc1Cl)c1ccc2cccnc2c1O` (centres undefined) the EC50 was 6.22 µM. With `O=C(Cn1c(Cc2ccccc2)nc2ccccc21)NCc1ccc2c(c1)OCO2` the EC50 was > 35 µM (inactive). For `O=C(NCCc1csc(-c2cccc(F)c2)n1)c1ccco1`, the EC50 was > 35 µM (inactive). With `O=C(NCCc1ccccc1)c1cc(-c2ccco2)on1` the EC50 was 10.8 µM. With `CC(=O)N1CCC(=NNC(=O)c2cc3ccccc3cc2O)CC1` the EC50 was > 35 µM (inactive). `CCN(CC)CCn1nc2c3c(cccc3c1=O)-c1ccccc1-2` was tested, and the EC50 was > 35 µM (inactive). With `CCCCCCCC1CC(=O)C=C(C)C1C(=O)OCC` (centres undefined) the EC50 was > 35 µM (inactive). `COc1ccccc1OCc1nnc(SCC(=O)NCc2ccco2)n1-c1ccccc1` was tested, and the EC50 was > 35 µM (inactive). `Cc1ccc(Nc2c(-c3ccccn3)nc3ccc(C)cn23)cc1` showed an EC50 of 6.14 µM. Work on `CCOC(=O)c1c(C)[nH]c(C(=O)N/N=C\c2ccccc2O)c1C` yielded an EC50 of 5.66 µM. For `Cc1cc(NC(=O)CSc2nc3c(c(=O)n2-c2ccc(Cl)cc2)SCC3)no1`, the EC50 was > 35 µM (inactive). `ON=C1c2cc(OCCN3CCCCC3)ccc2-c2ccc(OCCN3CCCCC3)cc21` gave an EC50 of 8.97 µM. For `Cc1oc(-c2ccc(Cl)cc2)nc1CS(=O)CC(=O)NCCN1CCCCCC1` (centres undefined), the EC50 was > 35 µM (inactive). `O=C(N/N=C\c1cc(Br)ccc1O)c1ccc(S(=O)(=O)N2CCCCC2)cc1` was tested, and the EC50 was 6.74 µM. With `Cc1ccc(/C=N/NC(=O)c2c(-c3ccccc3)noc2C)c(O)c1` the EC50 was 6.81 µM. Work on `Cc1nc2ccccc2c(=O)n1/N=C/c1ccc2ccccc2c1O` yielded an EC50 of 22.2 µM. For `CCCC(=O)NC(c1ccccc1OC)c1ccc2cccnc2c1O` (centres undefined), the EC50 was 5.97 µM. With `COCc1nnc(NC(=O)c2cc(Cl)ccc2OC)s1` the EC50 was > 35 µM (inactive). `O=C(/C=C/c1cn(-c2ccccc2)nc1-c1ccccc1)Nc1ccc(C(=O)O)cc1` was tested, and the EC50 was > 35 µM (inactive). In the case of `O=S(=O)(NCc1nnc2c(C(F)(F)F)cc(Cl)cn12)c1ccccc1`, the EC50 is reported as > 35 µM (inactive). For `CC(C)CC(NC(=O)c1ccccc1NC(=O)c1ccccc1)C(=O)O` (centres undefined), the EC50 was > 35 µM (inactive). In the case of `O=C(CSc1ccc(-c2ccccn2)nn1)Nc1nccs1`, the EC50 is reported as 10.6 µM.
